{"source": "patent US8268821B2", "about": "“Methods and compositions” (priority 2003, dated 2012)", "test_system": "cancer-related neuropathic pain", "experiment": "Open label dose escalation study of flupirtine, case studies JE and RM", "conditions": "flupirtine 100 mg qid; for neuropathic discriminant function score: >0 = neuropathic, day 1 baseline 0.262; for electric pain score / freezing pain score / numbness score / score for increased pain due to touch / score for increased pain due to weather changes / squeezing pain score / LEAST PAIN LAST 24 HRS: day 1 baseline 0; for PERCENTAGE PAIN RELIEF LAST 24 HOURS / WORST PAIN SCORE LAST 24 HOURS: day 1 baseline 10; for score for overly sensitive to touch / tingling pain score: day 1 baseline 20; for burning pain score / overwhelming pain score: day 1 baseline 90; for for shooting pain score / unpleasant pain score: day 1 baseline 100; for SCORE RELATIONSHIPS / SCORE MOOD / SCORE ENJOYMENT / SCORE SLEEP / SCORE WALKING / SCORE GENERAL ACTIVITY / SCORE TOTAL ACTIVITY: pain interference 1-10; for SCORE RELATIONSHIPS / SCORE NAUSEA / WHO PERFORMANCE STATUS: day 1 baseline 3; for SCORE MOOD / SCORE POOR APPETITE / SCORE UN[…] GAIT / PAIN SCORE RIGHT NOW: day 1 baseline 4; for SCORE ENJOYMENT / SCORE SLEEP: day 1 baseline 6; for SCORE WALKING: day 1 baseline 7; for SCORE GENERAL ACTIVITY / SCORE TOTAL ACTIVITY / AVERAGE PAIN LAST 24 HOURS: day 1 baseline 8; for SCORE CONSTIPATION / SCORE INDIGESTION / SCORE POOR CONCENTRATION / SCORE DROWSINESS / SCORE NAUSEA / SCORE POOR APPETITE / SCORE UN[…] GAIT: scale 1-4; for SCORE CONSTIPATION / SCORE INDIGESTION / SCORE POOR CONCENTRATION: day 1 baseline 1; for SCORE DROWSINESS: day 1 baseline 2; for LEAST PAIN LAST 24 HRS / PAIN SCORE RIGHT NOW / AVERAGE PAIN LAST 24 HOURS / WORST PAIN SCORE LAST 24 HOURS: scale to 10; for WHO PERFORMANCE STATUS: 0=fully active, 4=completely disabled", "data": [{"smiles": "CCOC(=O)Nc1ccc(NCc2ccc(F)cc2)nc1N", "note": "[flupirtine]", "values": [{"measurement": "neuropathic discriminant function score", "setting": "RM day 2", "value": "−0.228"}, {"measurement": "electric pain score", "setting": "RM day 2", "value": 0}, {"measurement": "freezing pain score", "setting": "RM day 2", "value": 0}, {"measurement": "numbness score", "setting": "RM day 2", "value": 0}, {"measurement": "score for increased pain due to touch", "setting": "RM day 2", "value": 0}, {"measurement": "score for increased pain due to weather changes", "setting": "RM day 2", "value": 0}, {"measurement": "squeezing pain score", "setting": "RM day 2", "value": 0}, {"measurement": "PERCENTAGE PAIN RELIEF LAST 24 HOURS", "setting": "RM day 2", "value": 15, "unit": "%"}, {"measurement": "score for overly sensitive to touch", "setting": "RM day 2", "value": 0}, {"measurement": "tingling pain score", "setting": "RM day 2", "value": 0}, {"measurement": "burning pain score", "setting": "RM day 2", "value": 70}, {"measurement": "overwhelming pain score", "setting": "RM day 2", "value": 70}, {"measurement": "for shooting pain score", "setting": "RM day 2", "value": 80}, {"measurement": "unpleasant pain score", "setting": "RM day 2", "value": 95}, {"measurement": "SCORE RELATIONSHIPS", "setting": "RM day 2", "value": 3}, {"measurement": "SCORE MOOD", "setting": "RM day 2", "value": 4}, {"measurement": "SCORE ENJOYMENT", "setting": "RM day 2", "value": 4}, {"measurement": "SCORE SLEEP", "setting": "RM day 2", "value": 6}, {"measurement": "SCORE WALKING", "setting": "RM day 2", "value": 6}, {"measurement": "SCORE GENERAL ACTIVITY", "setting": "RM day 2", "value": 6}, {"measurement": "SCORE TOTAL ACTIVITY", "setting": "RM day 2", "value": 6}, {"measurement": "SCORE CONSTIPATION", "setting": "RM day 2", "value": 1}, {"measurement": "SCORE INDIGESTION", "setting": "RM day 2", "value": 1}, {"measurement": "SCORE POOR CONCENTRATION", "setting": "RM day 2", "value": 3}, {"measurement": "SCORE DROWSINESS", "setting": "RM day 2", "value": 3}, {"measurement": "SCORE NAUSEA", "setting": "RM day 2", "value": 1}, {"measurement": "SCORE POOR APPETITE", "setting": "RM day 2", "value": 3}, {"measurement": "SCORE UN[…] GAIT", "setting": "RM day 2", "value": 4}, {"measurement": "LEAST PAIN LAST 24 HRS", "setting": "RM day 2", "value": 0}, {"measurement": "PAIN SCORE RIGHT NOW", "setting": "RM day 2", "value": 6}, {"measurement": "AVERAGE PAIN LAST 24 HOURS", "setting": "RM day 2", "value": 5}, {"measurement": "WORST PAIN SCORE LAST 24 HOURS", "setting": "RM day 2", "value": 8}, {"measurement": "WHO PERFORMANCE STATUS", "setting": "RM day 3", "value": 3}, {"measurement": "neuropathic discriminant function score", "setting": "RM day 3", "value": "−1.008"}, {"measurement": "electric pain score", "setting": "RM day 3", "value": 0}, {"measurement": "freezing pain score", "setting": "RM day 3", "value": 0}, {"measurement": "numbness score", "setting": "RM day 3", "value": 0}, {"measurement": "score for increased pain due to touch", "setting": "RM day 3", "value": 0}, {"measurement": "score for increased pain due to weather changes", "setting": "RM day 3", "value": 0}, {"measurement": "squeezing pain score", "setting": "RM day 3", "value": 0}, {"measurement": "PERCENTAGE PAIN RELIEF LAST 24 HOURS", "setting": "RM day 3", "value": 15, "unit": "%"}, {"measurement": "score for overly sensitive to touch", "setting": "RM day 3", "value": 0}, {"measurement": "tingling pain score", "setting": "RM day 3", "value": 0}, {"measurement": "burning pain score", "setting": "RM day 3", "value": 0}, {"measurement": "overwhelming pain score", "setting": "RM day 3", "value": 50}, {"measurement": "for shooting pain score", "setting": "RM day 3", "value": 20}, {"measurement": "unpleasant pain score", "setting": "RM day 3", "value": 75}, {"measurement": "SCORE RELATIONSHIPS", "setting": "RM day 3", "value": 3}, {"measurement": "SCORE MOOD", "setting": "RM day 3", "value": 4}, {"measurement": "SCORE ENJOYMENT", "setting": "RM day 3", "value": 4}, {"measurement": "SCORE SLEEP", "setting": "RM day 3", "value": 1}, {"measurement": "SCORE WALKING", "setting": "RM day 3", "value": 6}, {"measurement": "SCORE GENERAL ACTIVITY", "setting": "RM day 3", "value": 5}, {"measurement": "SCORE TOTAL ACTIVITY", "setting": "RM day 3", "value": 5}, {"measurement": "SCORE CONSTIPATION", "setting": "RM day 3", "value": 1}, {"measurement": "SCORE INDIGESTION", "setting": "RM day 3", "value": 1}, {"measurement": "SCORE POOR CONCENTRATION", "setting": "RM day 3", "value": 1}, {"measurement": "SCORE DROWSINESS", "setting": "RM day 3", "value": 2}, {"measurement": "SCORE NAUSEA", "setting": "RM day 3", "value": 1}, {"measurement": "SCORE POOR APPETITE", "setting": "RM day 3", "value": 1}, {"measurement": "SCORE UN[…] GAIT", "setting": "RM day 3", "value": 4}, {"measurement": "LEAST PAIN LAST 24 HRS", "setting": "RM day 3", "value": 0}, {"measurement": "PAIN SCORE RIGHT NOW", "setting": "RM day 3", "value": 8}, {"measurement": "AVERAGE PAIN LAST 24 HOURS", "setting": "RM day 3", "value": 8}, {"measurement": "WORST PAIN SCORE LAST 24 HOURS", "setting": "RM day 3", "value": 8}, {"measurement": "WHO PERFORMANCE STATUS", "setting": "RM day 4", "value": 3}, {"measurement": "neuropathic discriminant function score", "setting": "RM day 4", "value": "−1.138"}, {"measurement": "electric pain score", "setting": "RM day 4", "value": 0}, {"measurement": "freezing pain score", "setting": "RM day 4", "value": 0}, {"measurement": "numbness score", "setting": "RM day 4", "value": 0}, {"measurement": "score for increased pain due to touch", "setting": "RM day 4", "value": 0}, {"measurement": "score for increased pain due to weather changes", "setting": "RM day 4", "value": 0}, {"measurement": "squeezing pain score", "setting": "RM day 4", "value": 0}, {"measurement": "PERCENTAGE PAIN RELIEF LAST 24 HOURS", "setting": "RM day 4", "value": 75, "unit": "%"}, {"measurement": "score for overly sensitive to touch", "setting": "RM day 4", "value": 0}, {"measurement": "tingling pain score", "setting": "RM day 4", "value": 0}, {"measurement": "burning pain score", "setting": "RM day 4", "value": 0}, {"measurement": "overwhelming pain score", "setting": "RM day 4", "value": 30}, {"measurement": "for shooting pain score", "setting": "RM day 4", "value": 0}, {"measurement": "unpleasant pain score", "setting": "RM day 4", "value": 60}, {"measurement": "SCORE RELATIONSHIPS", "setting": "RM day 4", "value": 3}, {"measurement": "SCORE MOOD", "setting": "RM day 4", "value": 2}, {"measurement": "SCORE ENJOYMENT", "setting": "RM day 4", "value": 3}, {"measurement": "SCORE SLEEP", "setting": "RM day 4", "value": 2}, {"measurement": "SCORE WALKING", "setting": "RM day 4", "value": 5}, {"measurement": "SCORE GENERAL ACTIVITY", "setting": "RM day 4", "value": 5}, {"measurement": "SCORE TOTAL ACTIVITY", "setting": "RM day 4", "value": 5}, {"measurement": "SCORE CONSTIPATION", "setting": "RM day 4", "value": 3}, {"measurement": "SCORE INDIGESTION", "setting": "RM day 4", "value": 1}, {"measurement": "SCORE POOR CONCENTRATION", "setting": "RM day 4", "value": 1}, {"measurement": "SCORE DROWSINESS", "setting": "RM day 4", "value": 1}, {"measurement": "SCORE NAUSEA", "setting": "RM day 4", "value": 2}, {"measurement": "SCORE POOR APPETITE", "setting": "RM day 4", "value": 1}, {"measurement": "SCORE UN[…] GAIT", "setting": "RM day 4", "value": 4}, {"measurement": "LEAST PAIN LAST 24 HRS", "setting": "RM day 4", "value": 0}, {"measurement": "PAIN SCORE RIGHT NOW", "setting": "RM day 4", "value": 2.5}, {"measurement": "AVERAGE PAIN LAST 24 HOURS", "setting": "RM day 4", "value": 8}, {"measurement": "WORST PAIN SCORE LAST 24 HOURS", "setting": "RM day 4", "value": 8}, {"measurement": "WHO PERFORMANCE STATUS", "setting": "RM day 5", "value": 3}, {"measurement": "neuropathic discriminant function score", "setting": "RM day 5", "value": "−1.003"}, {"measurement": "electric pain score", "setting": "RM day 5", "value": 0}, {"measurement": "freezing pain score", "setting": "RM day 5", "value": 0}, {"measurement": "numbness score", "setting": "RM day 5", "value": 0}, {"measurement": "score for increased pain due to touch", "setting": "RM day 5", "value": 0}, {"measurement": "score for increased pain due to weather changes", "setting": "RM day 5", "value": 0}, {"measurement": "squeezing pain score", "setting": "RM day 5", "value": 0}, {"measurement": "PERCENTAGE PAIN RELIEF LAST 24 HOURS", "setting": "RM day 5", "value": 65, "unit": "%"}, {"measurement": "score for overly sensitive to touch", "setting": "RM day 5", "value": 0}, {"measurement": "tingling pain score", "setting": "RM day 5", "value": 0}, {"measurement": "burning pain score", "setting": "RM day 5", "value": 0}, {"measurement": "overwhelming pain score", "setting": "RM day 5", "value": 25}, {"measurement": "for shooting pain score", "setting": "RM day 5", "value": 0}, {"measurement": "unpleasant pain score", "setting": "RM day 5", "value": 80}]}]}
